This note sets out measurements from patent publication EP3421460A1, “2-[(4-ALKYLPHENOXY)-PYRIDINYL]-1-(1,2,4-TRIAZOL-1-YL)ALKAN-2-OL FUNGICIDES” (Bayer Aktiengesellschaft, priority 2018, dated 2019).

The term chromatographic logP denotes lipophilicity estimated from chromatographic retention.

Data set [1] is described as follows: LogP measurement by HPLC on reversed phase columns (EEC directive 79/831 Annex V.A8). The class given is physicochemical. The conditions noted are these: reversed phase HPLC column; method [a]: LC-UV, acidic range, 0.1% formic acid in water and acetonitrile as eluent. Here is the method: LogP values: Measurement of LogP values was performed according to EEC directive 79/831 Annex V.A8 by HPLC (High Performance Liquid Chromatography) on reversed phase columns with the following methods: • [a] […] If more than one LogP value is available within the same method, all the values are given and separated by "+". Calibration was done with straight-chain alkan2-ones (with 3 to 16 carbon atoms) with known LogP values (measurement of LogP values using retention times with linear interpolation between successive alkanones). Lambda-max-values were determined using UV-spectra from 200 nm to 400 nm and the peak values of the chromatographic signals.

For another data set, the system named is Podosphaera leucotricha. Put plainly: in vivo curative test on Podosphaera (apples). The conditions noted are these: sprayed 2 days after inoculation, evaluated 10 days after inoculation. The protocol:
Example B: in vivo curative test on Podosphaera (apples); comparison of compound I-01 according to the invention vs. related compounds known from WO-A 2017/029179 and WO-A 2013/007767, respectively [table] To produce a suitable preparation of active compound, 1 part by weight of active compound is mixed with the stated amounts of solvent and emulsifier, and the concentrate is diluted with water to the desired concentration. To test for curative activity, young plants are inoculated with an aqueous spore suspension of the causal agent of apple mildew (Podosphaera leucotricha). The plants are placed in a greenhouse at approximately 23°C under relative atmospheric humidity of approximately 70%. 2 days after the inoculation, the plants are sprayed with the preparation of active compound at the stated rate of application. The test is evaluated 10 days after the inoculation. 0% means an efficacy which corresponds to that of the untreated control, while an efficacy of 100% means that no disease is observed. Table: in vivo curative test on Podosphaera test (apples)

For another data set, the system named is Phakopsora pachyrhizi. Briefly: in vivo curative test on Phakopsora (soybeans). The conditions noted are these: sprayed 3 days after inoculation, evaluated 7 days after inoculation. The protocol: Example A: in vivo curative test on Phakopsora (soybeans); comparison of compound I-01 according to the invention vs. related compounds known from WO-A 2017/029179 and WO-A 2013/007767, respectively [table] To produce a suitable preparation of active compound, 1 part by weight of active compound is mixed with the stated amounts of solvent and emulsifier, and the concentrate is diluted with water to the desired concentration. To test for curative activity, young plants are inoculated with an aqueous spore suspension of the causal agent of soybean rust (Phakopsora pachyrhizi) and stay for 24h without light in an incubation cabinet at approximately 24°C and a relative atmospheric humidity of 95 %. The plants remain in the incubation cabinet at approximately 24°C and a relative atmospheric humidity of approximately 80 % and a day / night interval of 12h. 3 days after the inoculation, the plants are sprayed with the preparation of active compound at the stated rate of application. The test is evaluated 7 days after the inoculation. 0% means an efficacy which corresponds to that of the untreated control, while an efficacy of 100% means that no disease is observed. Table: in vivo curative test on Phakopsora test (soybeans)

`Cc1ccc(Oc2ccc(C(C)(O)Cn3cncn3)c(C(F)(F)F)n2)cc1` (stereo not shown) [I-01, 2-[6-(4-methylphenoxy)-2-(trifluoromethyl)pyridin-3-yl]-1-(1,2,4-triazol-1-yl)propan-2-ol]: in data set [1], the chromatographic logP is 2.69. Further, the Efficacy in% with Podosphaera leucotricha (rate of application 1 ppm) is 86%; in the data set on Podosphaera leucotricha (rate of application 10 ppm), 99%; in the data set on Phakopsora pachyrhizi (rate of application 5 ppm), 86%; in the data set on Phakopsora pachyrhizi (rate of application 10 ppm) it was 83%.
`CC(O)(Cn1cncn1)c1ccc(Oc2ccc(S(F)(F)(F)(F)F)cc2)nc1C(F)(F)F` (stereo not shown) [drawing 9]: the Efficacy in% with Phakopsora pachyrhizi (rate of application 5 ppm) and in the data set with Phakopsora pachyrhizi (rate of application 10 ppm) was 0% each time.
Consider `CC(O)(Cn1cncn1)c1ccc(Oc2ccc(Cl)cc2)cc1C(F)(F)F` (stereo not shown) [drawing 10], for which the Efficacy in% amounted to 8% in the data set on Phakopsora pachyrhizi (rate of application 5 ppm) and 15% in the data set with Phakopsora pachyrhizi (rate of application 10 ppm).
On to `CC(O)(Cn1cncn1)c1ccc(Oc2ccc(S(F)(F)(F)(F)F)cc2)nc1C(F)(F)F` (stereo not shown) [drawing 12], for which the Efficacy in% with Podosphaera leucotricha (rate of application 1 ppm) was determined as 62%; in the data set with Podosphaera leucotricha (rate of application 10 ppm), 92%.
As to `CC(O)(Cn1cncn1)c1ccc(Oc2ccc(Cl)cc2)cc1C(F)(F)F` (stereo not shown) [drawing 13], the Efficacy in% turned out to be 71% in the data set on Podosphaera leucotricha (rate of application 1 ppm) and 95% in the data set on Podosphaera leucotricha (rate of application 10 ppm).
